According to patent US9586951B2 (FUJIFILM Corporation, priority 2013, dated 2017):

Target: T1, ATM (Homo sapiens, UniProt Q13315)
T1 construct: detecting phosphorylation of Chk2 in a human non-small cell lung cancer cell line NCI-H460 (ATCC company); host or cells: NCI-H460 human non-small cell lung cancer cells
Experiment: ATM inhibition test (phosphorylation of Chk2 generated by ionizing radiation, AlphaScreen SureFire)
Assay type: cell-based
Conditions: phosphorylated Chk2 in NCI-H460 cells, ionizing radiation 8Gy, 1 hour after test compound treatment; read-out: ATM inhibitory activity
Method: ATM inhibitory effects of a test compound were measured by detecting phosphorylation of Chk2 in a human non-small cell lung cancer cell line NCI-H460 (ATCC company). The level of phosphorylated Chk2 generated by an ionizing radiation was measured using AlphaScreen SureFire (TGR Biosciences).
The cells were seeded by 40000 cells per well in 96-well CellBIND® plates (Corning International Inc.), and incubated at 37° C. overnight in 5% CO2. […] 1 hour after a test compound treatment, half of the plates were irradiated with ionizing radiation 8Gy (Faxitron Bioptics, LLC, RX-650 type). The plates irradiated with ionizing radiation and the plates not being irradiated with ionizing radiation were incubated at 37° C. for 1 hour in 5% CO2. […] Subsequent operations were performed according to the instruction book of AlphaScreen SureFire. […] The inhibition ratio was calculated by the following equation. Inhibition ratio (%)=((signal of drug untreated wells in the plates irradiated with ionizing radiation−signal of drug treated wells in the plates irradiated with ionizing radiation)/(signal of drug untreated wells in the plates irradiated with ionizing radiation−signal of drug untreated wells in the plates not being irradiated with ionizing radiation))×100

T1 sequence (Q13315 whole entry): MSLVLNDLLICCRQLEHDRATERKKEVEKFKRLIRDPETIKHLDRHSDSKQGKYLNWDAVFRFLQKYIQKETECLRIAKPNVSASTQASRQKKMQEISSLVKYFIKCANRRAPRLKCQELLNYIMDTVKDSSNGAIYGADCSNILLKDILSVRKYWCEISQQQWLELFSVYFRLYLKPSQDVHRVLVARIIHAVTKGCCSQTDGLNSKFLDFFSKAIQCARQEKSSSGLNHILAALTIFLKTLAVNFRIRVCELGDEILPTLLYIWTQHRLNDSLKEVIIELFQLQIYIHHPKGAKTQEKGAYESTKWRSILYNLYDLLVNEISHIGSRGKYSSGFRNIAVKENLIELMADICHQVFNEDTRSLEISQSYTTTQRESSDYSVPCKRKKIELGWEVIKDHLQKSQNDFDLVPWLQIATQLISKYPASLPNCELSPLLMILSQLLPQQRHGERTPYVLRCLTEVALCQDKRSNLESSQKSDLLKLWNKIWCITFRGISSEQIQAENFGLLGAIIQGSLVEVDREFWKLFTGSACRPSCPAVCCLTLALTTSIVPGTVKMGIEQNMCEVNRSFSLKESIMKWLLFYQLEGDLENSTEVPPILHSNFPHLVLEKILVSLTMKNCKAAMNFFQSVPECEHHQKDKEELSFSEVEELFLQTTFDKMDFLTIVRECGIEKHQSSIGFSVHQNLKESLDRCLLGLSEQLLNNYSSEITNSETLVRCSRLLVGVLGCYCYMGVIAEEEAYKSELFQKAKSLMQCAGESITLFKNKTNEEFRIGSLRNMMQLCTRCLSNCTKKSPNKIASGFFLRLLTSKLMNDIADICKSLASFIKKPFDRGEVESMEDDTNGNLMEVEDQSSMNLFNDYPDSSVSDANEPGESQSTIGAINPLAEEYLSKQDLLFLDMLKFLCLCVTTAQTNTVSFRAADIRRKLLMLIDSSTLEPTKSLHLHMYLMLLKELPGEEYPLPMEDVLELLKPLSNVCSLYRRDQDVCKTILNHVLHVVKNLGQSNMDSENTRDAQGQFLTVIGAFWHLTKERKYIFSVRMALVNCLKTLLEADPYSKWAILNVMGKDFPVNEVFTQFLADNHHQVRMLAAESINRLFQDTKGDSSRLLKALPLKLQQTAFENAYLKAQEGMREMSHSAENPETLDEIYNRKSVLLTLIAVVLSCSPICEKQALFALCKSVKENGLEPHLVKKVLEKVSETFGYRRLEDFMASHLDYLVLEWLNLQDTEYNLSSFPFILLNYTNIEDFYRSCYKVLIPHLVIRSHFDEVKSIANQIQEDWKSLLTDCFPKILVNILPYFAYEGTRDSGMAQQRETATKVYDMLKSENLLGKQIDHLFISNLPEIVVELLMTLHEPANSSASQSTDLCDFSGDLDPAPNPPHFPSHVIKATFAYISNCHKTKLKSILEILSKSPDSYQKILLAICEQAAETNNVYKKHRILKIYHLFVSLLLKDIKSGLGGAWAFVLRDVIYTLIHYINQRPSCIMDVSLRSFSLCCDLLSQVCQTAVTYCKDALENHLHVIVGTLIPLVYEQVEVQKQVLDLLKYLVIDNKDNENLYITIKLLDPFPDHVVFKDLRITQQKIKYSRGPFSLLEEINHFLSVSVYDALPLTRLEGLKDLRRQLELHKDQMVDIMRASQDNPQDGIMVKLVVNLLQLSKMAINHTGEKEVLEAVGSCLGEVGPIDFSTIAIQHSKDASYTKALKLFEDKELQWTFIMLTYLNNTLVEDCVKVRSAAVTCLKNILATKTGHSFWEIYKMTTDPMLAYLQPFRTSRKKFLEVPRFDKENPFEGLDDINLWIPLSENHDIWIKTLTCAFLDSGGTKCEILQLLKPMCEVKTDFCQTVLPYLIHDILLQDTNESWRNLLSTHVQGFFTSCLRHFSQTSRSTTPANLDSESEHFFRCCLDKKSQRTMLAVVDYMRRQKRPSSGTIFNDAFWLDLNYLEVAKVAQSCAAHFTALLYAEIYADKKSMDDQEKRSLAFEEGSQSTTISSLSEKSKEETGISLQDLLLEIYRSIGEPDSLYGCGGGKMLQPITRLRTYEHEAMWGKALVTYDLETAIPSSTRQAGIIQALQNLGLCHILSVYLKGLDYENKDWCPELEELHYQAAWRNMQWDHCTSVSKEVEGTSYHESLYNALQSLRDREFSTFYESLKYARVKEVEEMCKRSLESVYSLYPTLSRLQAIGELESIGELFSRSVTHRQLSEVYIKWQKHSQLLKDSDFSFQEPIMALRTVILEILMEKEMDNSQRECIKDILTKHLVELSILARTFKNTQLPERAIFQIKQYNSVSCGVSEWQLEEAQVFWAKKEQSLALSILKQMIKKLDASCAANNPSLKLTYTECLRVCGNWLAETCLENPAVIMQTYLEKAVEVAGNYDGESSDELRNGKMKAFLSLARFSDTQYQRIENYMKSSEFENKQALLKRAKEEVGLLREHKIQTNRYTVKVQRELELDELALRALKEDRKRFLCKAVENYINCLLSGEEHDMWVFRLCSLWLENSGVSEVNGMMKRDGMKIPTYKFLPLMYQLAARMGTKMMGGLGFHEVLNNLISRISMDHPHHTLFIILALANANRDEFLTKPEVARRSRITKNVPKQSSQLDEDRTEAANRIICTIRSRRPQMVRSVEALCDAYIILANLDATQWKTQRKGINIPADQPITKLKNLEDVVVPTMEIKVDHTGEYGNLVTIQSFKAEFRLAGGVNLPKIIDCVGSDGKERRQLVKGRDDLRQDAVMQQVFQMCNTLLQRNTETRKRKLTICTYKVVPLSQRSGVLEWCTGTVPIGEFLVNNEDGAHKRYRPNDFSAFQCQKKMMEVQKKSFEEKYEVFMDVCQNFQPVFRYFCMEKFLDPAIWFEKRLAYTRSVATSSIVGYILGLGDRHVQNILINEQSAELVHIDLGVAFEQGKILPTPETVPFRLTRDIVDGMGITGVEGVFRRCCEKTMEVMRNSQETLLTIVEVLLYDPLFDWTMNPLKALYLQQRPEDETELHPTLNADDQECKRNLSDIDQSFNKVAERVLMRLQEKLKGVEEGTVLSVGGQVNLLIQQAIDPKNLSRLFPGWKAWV

Compound	IC50 [nM]
3-((6-(4-Morpholino-6-oxo- 1,6-dihydropyridin-2-yl) thianthren-2-yl)amino) indolin-2-one [Example 1-12-37]	100 to 500
4-Morpholino-6-(7-((1-(5- (morpholino methyl) pyrimidin-2-yl)ethyl) amino)thianthren-1- yl)pyridin-2(1H)-one [Example 1-12-95]	100 to 500
6-(7-((4,4-Difluoropiperidin- 1-yl)methyl)-9H-xanthen-4- yl)-4-morpholino pyridin-2 (1H)-one [Example 2-2-39]	< 100
CC(Nc1ccc2c(c1)Sc1cccc(-c3cc(N4CCOCC4)cc(=O)[nH]3)c1S2)c1ncc(CO)cn1 (single isomer, unassigned) [Example 1-12-142-2, 6-(7-((1-(5-(hydroxymethyl)pyrimidin-2-yl)ethyl)amino)thianthren-1-yl)-4-morpholinopyridin-2(1H)-one]	100 to 500
Cc1ccc(C(C)Nc2ccc3c(c2)Sc2cccc(-c4cc(N5CCOCC5)cc(=O)[nH]4)c2S3)nc1 (single isomer, unassigned) [Example 1-12-143-2, 6-(7-((1-(5-methylpyridin-2-yl)ethyl)amino)thianthren-1-yl)-4-morpholinopyridin-2(1H)-one]	100 to 500
Cc1ccnc(C(C)Nc2ccc3c(c2)Sc2cccc(-c4cc(N5CCOCC5)cc(=O)[nH]4)c2S3)n1 (single isomer, unassigned) [Example 1-12-144-2, 6-(7-((1-(4-methylpyrimidin-2-yl)ethyl)amino)thianthren-1-yl)-4-morpholinopyridin-2(1H)-one]	100 to 500
CC(Nc1ccc2c(c1)Sc1cccc(-c3cc(N4CCOCC4)cc(=O)[nH]3)c1S2)c1cc(C#N)ncn1 (single isomer, unassigned) [Example 1-12-146-2, 6-(1-((6-(4-morpholino-6-oxo-1,6-dihydropyridin-2-yl)thianthren-2-yl)amino)ethyl)pyrimidine-4-carbonitrile]	100 to 500
CC(CN1CCOCC1)Nc1ccc2c(c1)Sc1cccc(-c3cc(N4CCOCC4)cc(=O)[nH]3)c1S2 (single isomer, unassigned) [Example 1-13-2-3, 4-morpholino-6-(7-((1-morpholinopropan-2-yl)amino)thianthren-1-yl)pyridin-2(1H)-one]	100 to 500
CC(CN1CCN(C)CC1)Nc1ccc2c(c1)Sc1cccc(-c3cc(N4CCOCC4)cc(=O)[nH]3)c1S2 (single isomer, unassigned) [Example 1-13-3-3, 6-(7-((1-(4-methylpiperazin-1-yl)propan-2-yl)amino)thianthren-1-yl)-4-morpholinopyridin-2(1H)-one]	100 to 500
O=c1cc(N2CCOCC2)cc(-c2cccc3c2Sc2ccc(NC4CCCC4N4CCOCC4)cc2S3)[nH]1 (single isomer, unassigned) [Example 1-16-1-3, 4-morpholino-6-(7-((2-morpholinocyclopentyl)amino)thianthren-1-yl)pyridin-2(1H)-one]	100 to 500
COCC(CN1CCOCC1)Nc1ccc2c(c1)Sc1cccc(-c3cc(N4CCOCC4)cc(=O)[nH]3)c1S2 (single isomer, unassigned) [Example 1-17-1-3, 6-(7-((1-methoxy-3-morpholinopropan-2-yl)amino)thianthren-1-yl)-4-morpholinopyridin-2(1H)-one]	100 to 500
CNCC(Nc1ccc2c(c1)Sc1cccc(-c3cc(N4CCOCC4)cc(=O)[nH]3)c1S2)c1cccc(C)n1 (single isomer, unassigned) [Example 1-19-4-1, 6-(7-((2-(Methylamino)-1-(6-methylpyridin-2-yl)ethyl)amino)thianthren-1-yl)-4-morpholinopyridin-2(1H)-one]	100 to 500

Now from value to compound:

IC50 [nM]	Compound
< 100	Cc1ccc(C(Nc2ccc3c(c2)Sc2cccc(-c4cc(N5CCOCC5)cc(=O)[nH]4)c2S3)C2CN(CCO)CCO2)nc1 (racemic) [Example 1-57-1, 6-(7-(((4-(2-hydroxyethyl)morpholin-2-yl)(5-methylpyridin-2-yl)methyl)amino)thianthren-1-yl)-4-morpholinopyridin-2(1H)-one]
< 100	Cc1ccc(C(Nc2ccc3c(c2)Sc2cccc(-c4cc(N5CCOCC5)cc(=O)[nH]4)c2S3)C2CN(CCO)CCO2)nc1 (racemic) [Example 1-57-2, 6-(7-(((4-(2-Hydroxyethyl)morpholin-2-yl)(5-methylpyridin-2-yl)methyl)amino)thianthren-1-yl)-4-morpholinopyridin-2(1H)-one]
100 to 500	CC(Nc1ccc2c(c1)Cc1cccc(-c3cc(N4CCOCC4)cc(=O)[nH]3)c1O2)c1cccnc1 (racemic) [Example 2-11-1, 4-morpholino-6-(7-((1-(pyridin-3-yl)ethyl)amino)-9H-xanthen-4-yl)pyridin-2(1H)-one]
100 to 500	COc1cncc(C(C)Nc2ccc3c(c2)Cc2cccc(-c4cc(N5CCOCC5)cc(=O)[nH]4)c2O3)c1 (racemic) [Example 2-11-2, 6-(7-((1-(5-Methoxypyridin-3-yl)ethyl)amino)-9H-xanthen-4-yl)-4-morpholinopyridin-2(1H)-one]
100 to 500	Cc1cccc(C(CO)Nc2ccc3c(c2)Cc2cccc(-c4cc(N5CCOCC5)cc(=O)[nH]4)c2O3)n1 (racemic) [Example 2-14-38, 6-(7-((2-Hydroxy-1-(6-methylpyridin-2-yl)ethyl)amino)-9H-xanthen-4-yl)-4-morpholino pyridin-2 (1H)-one]
100 to 500	Cc1ccnc(C(CO)Nc2ccc3c(c2)Cc2cccc(-c4cc(N5CCOCC5)cc(=O)[nH]4)c2O3)c1 (racemic) [Example 2-14-39, 6-(7-((2-Hydroxy-1-(4-methylpyridin-2-yl)ethyl)amino)-9H-xanthen-4-yl)-4-morpholino pyridin-2 (1H)-one]
100 to 500	O=C(OCc1ccccc1)N1C[C@@H](N2CCOCC2)[C@H](Nc2ccc3c(c2)Sc2cccc(-c4cc(N5CCOCC5)cc(=O)[nH]4)c2S3)C1 (racemic) [Example 11-1, Benzyl 3-morpholino-4-((6-(4-morpholino-6-oxo-1,6-dihydropyridin-2-yl)thianthren-2-yl)amino)pyrrolidine-1-carboxylate]
100 to 500	CN1CC(Nc2ccc3c(c2)Sc2cccc(-c4cc(N5CCOCC5)cc(=O)[nH]4)c2S3)C(N2CCOCC2)C1 (racemic) [Example 11-2, 6-(7-((1-Methyl-4-morpholinopyrrolidin-3-yl)amino)thianthren-1-yl)-4-morpholinopyridin-2(1H)-one]
< 100	O=c1cc(N2CCOCC2)cc(-c2cccc3c2Sc2ccc(N[C@@H]4COC[C@H]4N4CCOCC4)cc2S3)[nH]1 (relative stereo) [Example 1-60, Trans-4-morpholino-6-(7-((4-morpholinotetrahydrofuran-3-yl)amino)thianthren-1-yl)pyridin-2(1H)-one]
< 100	O=c1cc(N2CCOCC2)cc(-c2cccc3c2Sc2ccc(N[C@@H]4COC[C@@H]4N4CCOCC4)cc2S3)[nH]1 (relative stereo) [Example 1-61, cis-4-morpholino-6-(7-((4-morpholinotetrahydrofuran-3-yl)amino)thianthren-1-yl)pyridin-2(1 H)-one]
100 to 500	O=c1cc(N2CCOCC2)cc(-c2cccc3c2Oc2ccc(N[C@H]4CCN(Cc5ccccc5)C[C@@H]4O)cc2C3)[nH]1 (relative stereo) [Example 2-33, 6-(7-((trans-1-benzyl-3-hydroxypiperidin-4-yl)amino)-9H-xanthen-4-yl)-4-morpholinopyridin-2(1H)-one]
100 to 500	CC(CNc1ccc2c(c1)Sc1cccc(-c3cc(N4CCOCC4)cc(=O)[nH]3)c1S2)N1CCOCC1 (single isomer, unassigned) [Example 1-9-2-2, 4-morpholino-6-(7-((2-morpholinopropyl)amino)thianthren-1-yl)pyridin-2(1H)-one]
100 to 500	CC(CNc1ccc2c(c1)Sc1cccc(-c3cc(N4CCOCC4)cc(=O)[nH]3)c1S2)N1CCOCC1 (single isomer, unassigned) [Example 1-9-2-3, 4-morpholino-6-(7-((2-morpholinopropyl)amino)thianthren-1-yl)pyridin-2(1H)-one]
100 to 500	Cc1ccnc(C(CO)Nc2ccc3c(c2)Sc2cccc(-c4cc(N5CCOCC5)cc(=O)[nH]4)c2S3)c1 (single isomer, unassigned) [Example 1-12-138-1, 6-(7-((2-hydroxy-1-(4-methylpyridin-2-yl)ethyl)amino)thianthren-1-yl)-4-morpholinopyridin-2(1H)-one]
100 to 500	Cc1cccc(C(CO)Nc2ccc3c(c2)Sc2cccc(-c4cc(N5CCOCC5)cc(=O)[nH]4)c2S3)n1 (single isomer, unassigned) [Example 1-12-140-1, 6-(7-((2-hydroxy-1-(6-methylpyridin-2-yl)ethyl)amino)thianthren-1-yl)-4-morpholinopyridin-2(1H)-one]
100 to 500	Cc1nccc(C(C)Nc2ccc3c(c2)Sc2cccc(-c4cc(N5CCOCC5)cc(=O)[nH]4)c2S3)n1 (single isomer, unassigned) [Example 1-12-141-2, 6-(7-((1-(2-methylpyrimidin-4-yl)ethyl)amino)thianthren-1-yl)-4-morpholinopyridin-2(1H)-one]
< 100	COc1cncc(C(C)Nc2ccc3c(c2)Sc2cccc(-c4cc(N5CCOCC5)cc(=O)[nH]4)c2S3)c1 (single isomer, unassigned) [Example 1-12-145-2, 6-(7-((1-(5-methoxypyridin-3-yl)ethyl)amino)thianthren-1-yl)-4-morpholinopyridin-2(1H)-one]
